Laboratory results published in patent US12679843B2, “Pyrrolopyrimidine amines as complement inhibitors” (BioCryst Pharmaceuticals, Inc., priority 2020, dated 2026).

molecular target: Factor D (Homo sapiens, UniProt P00746); test: Factor D esterolytic assay (Z-Lys-SBzl thioester substrate, DTNB, 405 nm); type: biochemical; conditions: substrate Z-Lys-SBzl 1.29 mM, 100 mM HEPES, 500 mM NaCl, pH 7.5, 10% DMSO, tested a minimum of three times
Method: The IC50 value of a compound (i.e., the concentration of the compound that inhibits 50% of the enzymatic activity) was calculated according to the procedure reported in U.S. Pat. No. 6,653,340 B1, e.g., column 74 (incorporated by reference).
Specifically, the compounds were dissolved in a stock solution of DMSO at 10.0 or 100 mM. A portion of this stock solution was added to assay buffer in a final volume of 50 μL. Controls included buffer alone and enzyme solutions to which DMSO was added. Substrate was added to the reaction wells immediately or after incubation at room temperature. The reaction rates were measured spectrophotometrically by the generation of product at 405 nm for 600 sec. Background absorbance at 690 nm was measured and subtracted from the absorbance at 405 nm for each well.
The reaction rate for enzyme alone was compared to the rate of enzyme in the presence of inhibitor and the percent inhibition was calculated as shown below: Percent Inhibition=[Rate without inhibitor−Rate with inhibitor)/(Rate without inhibitor)]−100 Factor D Esterolytic Assay:
An established esterolytic assay for the measurement of Factor D activity and inhibition of Factor D activity was used (Kam, C. M.; McRae, B. J.; Harper, J. W.; Niemann, M. A.; Volanakis, J. E.; Powers, J. C. Human complement proteins D. C2, and B Active site mapping with peptide thioester substrates. J Biol. Chem. 1987, 262, 3444-3451). For this assay Z-Lys-SBzl, 1.29 mM (Kim, S.; Narayana, S. V. L; Volanakis, J. E. Mutational analysis of the substrate binding site of human complement Factor D. Biochemistry, 1994, 33, 14393-14399) was used as the substrate for Factor D ([…]). Hydrolysis of this compound by Factor D liberated a free sulfhydryl group which is then reacted with 5,5′-dithiobis(2-nitrobenzoic acid) producing an intense yellow color (Habeeb, A. F. S. A. Reaction of protein sulfhydryl groups with Ellman's Reagent. Methods in Enzymol. 1976, 25, 457-464). The assays were performed in 96 well microtiter plates and rates of hydrolysis were monitored at 405 nm on a Biotek Synergy H1 plate reader. Hydrolysis rates were reported as change in mOD/min. The assay was conducted in 100 mM HEPES, 500 mM NaCl, pH 7.5 containing 10% DMSO in a final volume of 50 μL per well.
An IC50, a compound concentration which inhibits 50% of the enzymatic activity, was calculated. Compounds in the examples were tested a minimum of three times.

Chain of Factor D (P00746 26-253): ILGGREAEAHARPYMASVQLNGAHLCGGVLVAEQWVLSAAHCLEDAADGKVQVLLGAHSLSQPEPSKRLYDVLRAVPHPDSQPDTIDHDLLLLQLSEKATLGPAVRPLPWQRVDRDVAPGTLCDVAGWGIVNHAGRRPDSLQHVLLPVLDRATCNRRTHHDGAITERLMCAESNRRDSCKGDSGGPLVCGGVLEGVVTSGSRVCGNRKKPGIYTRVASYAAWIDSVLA

Row | SMILES | IC50
1 | Cc1ccc2c(c1)c1c(N)ncnc1n2CC(=O)N1C[C@H](F)C[C@H]1C(=O)Nc1cccc(Br)n1 [Compound 21a, (2S,4R)-1-(2-(4-amino-6-methyl-9H-pyrimido[4,5-b]indol-9-yl)acetyl)-N-(6-bromopyridin-2-yl)-4-fluoropyrrolidine-2-carboxamide] | < 100 nM
2 | Cc1ccc2c3c(N)ncnc3n(CC(=O)N3[C@@H]4C[C@@H]4C[C@H]3C(=O)Nc3cccc(Br)n3)c2c1 [Compound 23f, (1R,3S,5R)-2-(2-(4-amino-7-methyl-9H-pyrimido[4,5-b]indol-9-yl)acetyl)-N-(6-bromopyridin-2-yl)-2-azabicyclo[3.1.0]hexane-3-carboxamide] | < 100 nM
3 | Cc1ccc2c3c(N)ncnc3n(CC(=O)N3[C@H](C(=O)Nc4cccc(Br)n4)C[C@@]4(C)C[C@@H]34)c2c1 [Compound 24a, (1R,3S,5R)-2-(2-(4-amino-7-methyl-9H-pyrimido[4,5-b]indol-9-yl)acetyl)-N-(6-bromopyridin-2-yl)-5-methyl-2-azabicyclo[3.1.0]hexane-3-carboxamide] | < 100 nM
4 | Nc1ncnc2c1c1cc(C(F)(F)F)ccc1n2CC(=O)N1C[C@H](F)C[C@H]1C(=O)NCc1cccc(Cl)c1F [Compound 25a, (2S,4R)-1-(2-(4-amino-6-(trifluoromethyl)-9H-pyrimido[4,5-b]indol-9-yl)acetyl)-N-(3-chloro-2-fluorobenzyl)-4-fluoropyrrolidine-2-carboxamide] | < 100 nM
5 | Nc1ncnc2c1c1cc(C(F)(F)F)ccc1n2CC(=O)N1C[C@H](F)C[C@H]1C(=O)Nc1cccc(Br)n1 [Compound 26a, (2S,4R)-1-(2-(4-amino-6-(trifluoromethyl)-9H-pyrimido[4,5-b]indol-9-yl)acetyl)-N-(6-bromopyridin-2-yl)-4-fluoropyrrolidine-2-carboxamide] | < 100 nM
6 | Nc1ncnc2c1c1cc(C(F)(F)F)ccc1n2CC(=O)N1[C@@H]2C[C@@H]2C[C@H]1C(=O)Nc1cccc(Br)n1 [Compound 27a, (1R,3S,5R)-2-(2-(4-amino-6-(trifluoromethyl)-9H-pyrimido[4,5-b]indol-9-yl)acetyl)-N-(6-bromopyridin-2-yl)-2-azabicyclo[3.1.0]hexane-3-carboxamide] | < 100 nM
7 | C[C@@]12C[C@@H](C(=O)Nc3cccc(Br)n3)N(C(=O)Cn3c4ccc(C(F)(F)F)cc4c4c(N)ncnc43)[C@@H]1C2 [Compound 28a, (1R,3S,5R)-2-(2-(4-amino-6-(trifluoromethyl)-9H-pyrimido[4,5-b]indol-9-yl)acetyl)-N-(6-bromopyridin-2-yl)-5-methyl-2-azabicyclo[3.1.0]hexane-3-carboxamide] | < 100 nM
8 | Nc1ncnc2c1c1ccncc1n2CC(=O)N1[C@@H]2C[C@@H]2C[C@H]1C(=O)Nc1cccc(Br)n1 [Compound 29f, (1R,3S,5R)-2-(2-(4-amino-9H-pyrido[4′,3′:4,5]pyrrolo[2,3-d]pyrimidin-9-yl)acetyl)-N-(6-bromopyridin-2-yl)-2-azabicyclo[3.1.0]hexane-3-carboxamide] | < 100 nM
9 | Cc1cccc2c3c(N)ncnc3n(CC(=O)N3[C@@H]4C[C@@H]4C[C@H]3C(=O)Nc3cccc(Br)n3)c12 [Compound 30f, (1R,3S,5R)-2-(2-(4-amino-8-methyl-9H-pyrimido[4,5-b]indol-9-yl)acetyl)-N-(6-bromopyridin-2-yl)-2-azabicyclo[3.1.0]hexane-3-carboxamide] | < 100 nM
10 | Nc1ncnc2c1c1ncccc1n2CC(=O)N1[C@@H]2C[C@@H]2C[C@H]1C(=O)Nc1cccc(Br)n1 [Compound 31f, (1R,3S,5R)-2-(2-(4-amino-9H-pyrido[2′,3′:4,5]pyrrolo[2,3-d]pyrimidin-9-yl)acetyl)-N-(6-bromopyridin-2-yl)-2-azabicyclo[3.1.0]hexane-3-carboxamide] | < 100 nM
11 | Nc1ncnc2c1c1cc(F)ccc1n2CC(=O)N1[C@@H]2C[C@@H]2C[C@H]1C(=O)Nc1cccc(Br)n1 [Compound 32f, (1R,3S,5R)-2-(2-(4-amino-6-fluoro-9H-pyrimido[4,5-b]indol-9-yl)acetyl)-N-(6-bromopyridin-2-yl)-2-azabicyclo[3.1.0]hexane-3-carboxamide] | < 100 nM
12 | Nc1ncnc2c1c1ccc(F)cc1n2CC(=O)N1[C@@H]2C[C@@H]2C[C@H]1C(=O)Nc1cccc(Br)n1 [Compound 33e, (1R,3S,5R)-2-(2-(4-amino-7-fluoro-9H-pyrimido[4,5-b]indol-9-yl)acetyl)-N-(6-bromopyridin-2-yl)-2-azabicyclo[3.1.0]hexane-3-carboxamide] | < 100 nM
13 | Nc1ncnc2c1c1cc(Br)ccc1n2CC(=O)N1[C@@H]2C[C@@H]2C[C@H]1C(=O)Nc1cccc(Br)n1 [Compound 34e, (1R,3S,5R)-2-(2-(4-amino-6-bromo-9H-pyrimido[4,5-b]indol-9-yl)acetyl)-N-(6-bromopyridin-2-yl)-2-azabicyclo[3.1.0]hexane-3-carboxamide] | < 100 nM
14 | Nc1ncnc2c1c1cccc(Br)c1n2CC(=O)N1[C@@H]2C[C@@H]2C[C@H]1C(=O)Nc1cccc(Br)n1 [Compound 35f, (1R,3S,5R)-2-(2-(4-amino-8-bromo-9H-pyrimido[4,5-b]indol-9-yl)acetyl)-N-(6-bromopyridin-2-yl)-2-azabicyclo[3.1.0]hexane-3-carboxamide] | < 100 nM
15 | COc1ccc2c3c(N)ncnc3n(CC(=O)N3[C@@H]4C[C@@H]4C[C@H]3C(=O)Nc3cccc(Br)n3)c2c1 [Compound 36e, (1R,3S,5R)-2-(2-(4-amino-7-methoxy-9H-pyrimido[4,5-b]indol-9-yl)acetyl)-N-(6-bromopyridin-2-yl)-2-azabicyclo[3.1.0]hexane-3-carboxamide] | < 100 nM
16 | COc1ccc2c3c(N)ncnc3n(CC(=O)N3[C@H](C(=O)Nc4cccc(Br)n4)C[C@@]4(C)C[C@@H]34)c2c1 [Compound 37a, (1R,3S,5R)-2-(2-(4-amino-7-methoxy-9H-pyrimido[4,5-b]indol-9-yl)acetyl)-N-(6-bromopyridin-2-yl)-5-methyl-2-azabicyclo[3.1.0]hexane-3-carboxamide] | < 100 nM
17 | COc1ccc2c(c1)c1c(N)ncnc1n2CC(=O)N1[C@@H]2C[C@@H]2C[C@H]1C(=O)Nc1cccc(Br)n1 [Compound 38e, (1R,3S,5R)-2-(2-(4-amino-6-methoxy-9H-pyrimido[4,5-b]indol-9-yl)acetyl)-N-(6-bromopyridin-2-yl)-2-azabicyclo[3.1.0]hexane-3-carboxamide] | < 100 nM
18 | COC(=O)c1ccc2c(c1)c1c(N)ncnc1n2CC(=O)N1[C@@H]2C[C@@H]2C[C@H]1C(=O)Nc1cccc(Br)n1 [Compound 39f, methyl 4-amino-9-(2-((1R,3S,5R)-3-((6-bromopyridin-2-yl)carbamoyl)-2-azabicyclo[3.1.0]hexan-2-yl)-2-oxoethyl)-9H-pyrimido[4,5-b]indole-6-carboxylate] | < 100 nM
19 | COC(=O)c1ccc2c(c1)c1c(N)ncnc1n2CC(=O)N1[C@H](C(=O)Nc2cccc(Br)n2)C[C@@]2(C)C[C@@H]12 [Compound 40a, methyl 4-amino-9-(2-((1R,3S,5R)-3-((6-bromopyridin-2-yl)carbamoyl)-5-methyl-2-azabicyclo[3.1.0]hexan-2-yl)-2-oxoethyl)-9H-pyrimido[4,5-b]indole-6-carboxylate] | < 100 nM
